Test results published in patent publication US10550143B2, “C,O-spiro aryl glycoside compounds, preparation therefor and use thereof” (SHANGHAI INSTITUTE OF MATERIA MEDICA, CHINESE ACADEMY OF …, priority 2015, dated 2020).
Marks after values point to notes of the source that are not given here.

Experiments:
Assay type in all cases: in vivo, mouse
C57BL/6J mice [1] = experiment: Acute administration of A28 at multiple doses, urinary glucose of C57BL/6J mice; conditions: for Total sugar excretion / Urine concentration / Urine volume: 24 h urine
Procedure: (1) 90 normal male C57BL/6J mice were selected and randomly divided into 9 groups according to body weight and blood glucose, 10 in each group. […] After oral gavage, the mice were placed in rats (mice) metabolic cages, […] and urine was collected after 24 h, and the urine volume was recorded, then preserved under −20° C. Rats take food and water freely during the experimental period.
(2) Index Determination: Glucose levels in urine are measured by the glucose assay kit.

C57BL/6J mice [2] = experiment: Acute administration of A28 at multiple doses, oral glucose tolerance of C57BL/6J mice; conditions: for AUC0-2 h / Average hypoglycemic rate % (0-2 h) / Blood glucose level 15 min / Blood glucose level 30 min / Blood glucose level 60 min / Blood glucose level 90 min / Blood glucose level 120 min / Blood glucose level 0: C57BL/6J mice OGTT; for Blood glucose level 0: before sugar
Procedure: (1) Experimental Methods: 56 C57BL/6J mice were selected and starved for 6 h, took water freely, then randomly divided into 7 groups according to body weight and random blood glucose, 8 rats in each group. […] Average hypoglycemic rate %=(AUC0-120 min of solvent control group−AUC0-120 min of administration group)/(AUC0-120 min of solvent control group−AUC0-120 min of blank control group)*100%

db/db mice [3] = experiment: Acute administration at multiple doses, random blood glucose in db/db mice; conditions: for Blood glucose level 0 h: before administration
Procedure: (1) 127 db/db mice (half male and half female) entered the animal laboratory of the institute at 7 weeks of age and were grouped at 10 weeks of age. Random blood glucose and random body weight of all db/db mice were determined at 9:00 am, and then fasted for 6 hours (free drinking). Fasting blood glucose and fasting body weight were determined, and blood was collected (10 μl EDTA+20 μl tail blood, centrifugated to collect supernatant) to determine the insulin content. […] The db/db mice were once orally administered at a dose of 10 mL/kg. Blood glucose levels were measured before administration, and at 1 h, 2 h, 3 h, 4 h, 6 h after administration, and the administration times and body weights were recorded. Mice took food and water freely during the experiment.
Average hypoglycemic rate %=(model control group−administration group)/(model control group−blank control group)*100%

db/db mice [4] = experiment: Chronic administration, glycosylated hemoglobin level in db/db mice; conditions: for HbA1c Decline rate %: vs vehicle
Procedure: (§1) Oral gavage administrated, daily dose volume was 10 mL/kg, administered once daily. Administration time was 9: 00-10:00 daily, and the administration period was 5 weeks.
In the end of the above experiment, the orbital blood was taken from animals of each group and divided into two tubes, one was centrifuged to take blood cells for the determination of glycated hemoglobin content, the other tube was added with 25 μL EDTA in advance, centrifuged and the supernatant was taken to determine the indexes such as triglyceride (TG), total cholesterol (TC), total protein (TP), albumin, low density lipoprotein (LDL), high density lipoprotein (HDL), non-esterified fatty acid (NEFA) and so on.

db/db mice [5] = experiment: Chronic administration, oral glucose tolerance in db/db mice; conditions: for Blood glucose AUC0-2 h / Blood glucose (mmol/L) 0 min / Blood glucose (mmol/L) 15 min / Blood glucose (mmol/L) 30 min / Blood glucose (mmol/L) 60 min / Blood glucose (mmol/L) 90 min / Blood glucose (mmol/L) 120 min / AUC0-2 h reduction rate (%): glucose tolerance, chronic administration; for AUC0-2 h reduction rate (%): vs vehicle
Procedure: as §1
The glucose tolerance of mice of normal control group, model control group, test substance group and positive control group were determined 3 weeks after administration of drug, oral administrated with 1.5 g/kg of glucose, and taken 2 μL of blood on the tail. 4 μL of normal saline was added to 96 well sharp bottom plate to dilute evenly, and then the blood glucose was measured. The blood glucose levels before the sugar administration and at 15, 30, 60, 90 and 120 min after the sugar administration were measured. The true blood glucose level was calculated and the area under the blood glucose curve within 120 min was calculated by the following formula: AUC0-2h (mmol/L·h)=(BG0+BG15)×0.25/2+(BG15+BG30)×0.25/2+(BG30+BG60)×0.5/2+(BG60+[…])×1.0/2 Note: BG0, BG15, BG30, BG60 and BG120 represent the blood glucose levels before the sugar administration, and at 15, 30, 60, and 120 min after sugar administration, respectively. Average hypoglycemic rate %=(solvent control group AUC0-2h−administration group AUC0-2h)/solvent control group AUC0-2h*100%

## CCc1ccc(Cc2cc3c(cc2Cl)CO[C@]32O[C@H](C)[C@@H](O)[C@H](O)[C@H]2O)s1 [Example A28, (1S,3′R,4′S,5′S,6′R)-6′-methyl-6-((5-ethylthienyl)-2-methyl)-5-chloro-3′,4′,5′,6′-tetrahydro-3H-spiro[isobenzofuran-1,2′-pyran]-3′,4′,5′-triol]
C57BL/6J mice [1]; at the same dose
  urinary exclusion effect compared with Dapagliflozin: equal to or stronger than positive control Dapagliflozin
C57BL/6J mice [1]; oral 0.3 mg/kg
  Total sugar excretion: 10.31 ± 3.26 mg/100 g
  Urine concentration: 7.91 ± 2.50 mmol/L
  Urine volume: 2.1 ± 0.7 mL
C57BL/6J mice [1]; oral 1 mg/kg
  Total sugar excretion: 175.49 ± 55.53 mg/100 g
  Urine concentration: 133.28 ± 42.18 mmol/L
  Urine volume: 1.8 ± 0.6 mL
C57BL/6J mice [1]; oral 3 mg/kg
  Total sugar excretion: 440.02 ± 139.25 mg/100 g
  Urine concentration: 265.71 ± 84.09 mmol/L
  Urine volume: 2.1 ± 0.7 mL
C57BL/6J mice [1]; oral 10 mg/kg
  Total sugar excretion: 712.00 ± 225.32 mg/100 g
  Urine concentration: 344.07 ± 108.88 mmol/L
  Urine volume: 2.5 ± 0.8 mL
C57BL/6J mice [1]; single oral, within 24 hours
  effective dose, urine glucose excretion: ≤ 0.3 mg/kg
C57BL/6J mice [2]; oral 0.3 mg/kg
  AUC0-2 h: 21.6 ± 1.5 mmol·h/L
  Average hypoglycemic rate % (0-2 h): 2.0%
  Blood glucose level 15 min: 14.2 ± 2.1 mmol/L
  Blood glucose level 30 min: 13.0 ± 1.7 mmol/L
  Blood glucose level 60 min: 11.2 ± 0.8 mmol/L
  Blood glucose level 90 min: 9.1 ± 1.0 mmol/L
  Blood glucose level 120 min: 8.3 ± 1.0 mmol/L
  Blood glucose level 0: 7.5 ± 0.4 mmol/L
C57BL/6J mice [2]; oral 1 mg/kg
  AUC0-2 h: 19.8 ± 1.0 mmol·h/L
  Average hypoglycemic rate % (0-2 h): 10.0%
  Blood glucose level 15 min: 12.5 ± 1.6 mmol/L
  Blood glucose level 30 min: 12.0 ± 0.8 mmol/L
  Blood glucose level 60 min: 9.9 ± 0.9 mmol/L
  Blood glucose level 90 min: 8.7 ± 0.7 mmol/L
  Blood glucose level 120 min: 7.9 ± 0.7 mmol/L
  Blood glucose level 0: 7.1 ± 0.6 mmol/L
C57BL/6J mice [2]; oral 3 mg/kg
  AUC0-2 h: 18.5 ± 0.6 mmol·h/L
  Average hypoglycemic rate % (0-2 h): 16.2%
  Blood glucose level 15 min: 10.4 ± 1.0 mmol/L
  Blood glucose level 30 min: 11.3 ± 1.1 mmol/L
  Blood glucose level 60 min: 9.5 ± 0.7 mmol/L
  Blood glucose level 90 min: 8.4 ± 0.7 mmol/L
  Blood glucose level 120 min: 7.4 ± 0.6 mmol/L
  Blood glucose level 0: 6.4 ± 0.7 mmol/L
C57BL/6J mice [2]; C57BL/6J mice, once administrated
  effective dose, reduction of blood glucose AUC within 2 h after sugar: 1 mg/kg
db/db mice [3]; single administration, within 6 h
  effective dose, reduction of blood glucose levels: 3 mg/kg
db/db mice [3]; single oral 0.3 mg/kg
  AUC0-6 h: 103.7 ± 7.7 mmol·h/L
  Blood glucose level 1 h: 19.4 ± 1.2 mmol/L
  Blood glucose level 2 h: 18.0 ± 0.9 mmol/L
  Blood glucose level 3 h: 17.2 ± 1.5 mmol/L
  Blood glucose level 4 h: 16.5 ± 1.5 mmol/L
  Blood glucose level 6 h: 15.4 ± 1.7 mmol/L
  Blood glucose level 0 h: 17.9 ± 1.5 mmol/L
db/db mice [3]; single oral 1 mg/kg
  AUC0-6 h: 87.3 ± 4.8 mmol·h/L
  Blood glucose level 1 h: 15.9 ± 0.7 mmol/L
  Blood glucose level 2 h: 13.7 ± 0.6 mmol/L
  Blood glucose level 3 h: 14.6 ± 0.9 mmol/L
  Blood glucose level 4 h: 14.9 ± 1.1 mmol/L
  Blood glucose level 6 h: 12.3 ± 0.9 mmol/L
  Blood glucose level 0 h: 16.8 ± 1.2 mmol/L
db/db mice [3]; single oral 3 mg/kg
  AUC0-6 h: 62.7 ± 3.3 mmol·h/L
  Blood glucose level 1 h: 11.2 ± 1.2 mmol/L
  Blood glucose level 2 h: 9.1 ± 0.5 mmol/L
  Blood glucose level 3 h: 10.2 ± 0.7 mmol/L
  Blood glucose level 4 h: 8.7 ± 0.6 mmol/L
  Blood glucose level 6 h: 9.7 ± 0.8 mmol/L
  Blood glucose level 0 h: 18.7 ± 1.2 mmol/L
db/db mice [3]; single oral 10 mg/kg
  AUC0-6 h: 47.2 ± 1.7 mmol·h/L
  Blood glucose level 1 h: 8.2 ± 0.4 mmol/L
  Blood glucose level 2 h: 6.0 ± 0.6 mmol/L
  Blood glucose level 3 h: 7.1 ± 0.5 mmol/L
  Blood glucose level 4 h: 7.2 ± 0.6 mmol/L
  Blood glucose level 6 h: 6.1 ± 0.4 mmol/L
  Blood glucose level 0 h: 18.3 ± 1.7 mmol/L
db/db mice [4]; dose 0.3 mg/kg
  HbA1c (%): 5.83 ± 0.36 %
  HbA1c Decline rate %: 23.2%
db/db mice [4]; dose 1 mg/kg
  HbA1c (%): 6.02 ± 0.30 %
  HbA1c Decline rate %: 20.7%
db/db mice [4]; dose 3 mg/kg
  HbA1c (%): 4.95 ± 0.37 %
  HbA1c Decline rate %: 34.8%
db/db mice [4]; dose 10 mg/kg
  HbA1c (%): 4.50 ± 0.27 %
  HbA1c Decline rate %: 40.7%
db/db mice [5]; after 3 weeks of chronic administration
  improvement of oral glucose tolerance compared with Dapagliflozin: stronger than that of Dapagliflozin of the same dose
db/db mice [5]; dose 0.3 mg/kg
  Blood glucose AUC0-2 h: 6.3 ± 1.3
  Blood glucose (mmol/L) 0 min: 12.3 ± 0.9 mmol/L
  Blood glucose (mmol/L) 15 min: 22.7 ± 1.4 mmol/L
  Blood glucose (mmol/L) 30 min: 21.4 ± 1.1 mmol/L
  Blood glucose (mmol/L) 60 min: 13.5 ± 0.7 mmol/L
  Blood glucose (mmol/L) 90 min: 12.5 ± 0.9* * mmol/L
  Blood glucose (mmol/L) 120 min: 10.9 ± 1.0* * mmol/L
  AUC0-2 h reduction rate (%): 57.2%
db/db mice [5]; dose 1 mg/kg
  Blood glucose AUC0-2 h: 4.7 ± 1.9
  Blood glucose (mmol/L) 0 min: 10.4 ± 1.0 mmol/L
  Blood glucose (mmol/L) 15 min: 16.9 ± 0.8 mmol/L
  Blood glucose (mmol/L) 30 min: 18.7 ± 0.7 mmol/L
  Blood glucose (mmol/L) 60 min: 11.1 ± 0.5 mmol/L
  Blood glucose (mmol/L) 90 min: 10.4 ± 0.6* * mmol/L
  Blood glucose (mmol/L) 120 min: 8.7 ± 0.5 mmol/L
  AUC0-2 h reduction rate (%): 68.2%
db/db mice [5]; dose 3 mg/kg
  Blood glucose AUC0-2 h: 6.1 ± 0.9
  Blood glucose (mmol/L) 0 min: 8.1 ± 1.0 mmol/L
  Blood glucose (mmol/L) 15 min: 16.1 ± 2.4 mmol/L
  Blood glucose (mmol/L) 30 min: 17.4 ± 2.6 mmol/L
  Blood glucose (mmol/L) 60 min: 9.1 ± 1.0 mmol/L
  Blood glucose (mmol/L) 90 min: 8.9 ± 0.8 mmol/L
  Blood glucose (mmol/L) 120 min: 6.9 ± 0.8 mmol/L
  AUC0-2 h reduction rate (%): 58.9%
db/db mice [5]; dose 10 mg/kg
  Blood glucose AUC0-2 h: 2.3 ± 0.8
  Blood glucose (mmol/L) 0 min: 7.2 ± 0.6 mmol/L
  Blood glucose (mmol/L) 15 min: 11.3 ± 0.6 mmol/L
  Blood glucose (mmol/L) 30 min: 12.3 ± 1.0 mmol/L
  Blood glucose (mmol/L) 60 min: 7.1 ± 0.5 mmol/L
  Blood glucose (mmol/L) 90 min: 6.5 ± 0.3 mmol/L
  Blood glucose (mmol/L) 120 min: 6.2 ± 0.5 mmol/L
  AUC0-2 h reduction rate (%): 84.6%
